Test results taken from PMC4055595, “Pharmacokinetic Compatibility of Ginsenosides and Schisandra Lignans in Shengmai-san: From the Perspective of P-Glycoprotein” (PLoS ONE, 2014).
Like-named read-outs stand apart in the source and are kept apart here.

Experiments:
[1] = target: T1, human MDR1-encoded P-gp (L-MDR1 cells) (Homo sapiens, UniProt P08183); assay: Transport of digoxin and ginsenosides across L-MDR1 cell monolayers (efflux ratio); type: in vitro ADME; details: for Effect of verapamil on efflux ratio / Papp / Effect of SLE on efflux ratio / transport: L-MDR1 cells; for Effect of verapamil on efflux ratio / Papp: 10 µM verapamil; for Effect of SLE on efflux ratio / transport: SLE 2.0 and 10.0 µg/mL; for P-gp substrate classification: summary of transport/uptake in LLC-PK1, L-MDR1 and Caco-2 cells with verapamil
Protocol: (§1) LLC-PK1 cells, a cell line lacking P-gp, and the derived cell line L-MDR1, which over-express human MDR1-encoded P-gp, were grown in minimum essential medium with supplements at 37°C, 5% CO2, and 95% humidity. LLC-PK1 and L-MDR1 cells were seeded at a density of 12×10^6 cells per 150-cm^2 flask and grown for 7 days in medium 199 supplemented with 2 mM glutamine, 10% fetal bovine serum, 10 mg/500 mL of streptomycin, and 10,000 IU/500 mL of penicillin. To ensure a constant expression level of transport protein, L-MDR1 cells were grown in the presence of 640 nM vincristine. Cells were grown as monolayer on polycarbonate membrane filters (Transwell; Costar Corporation, Cambridge, MA) as outlined previously. Transepithelial resistance was measured in each well using a Millicell ERS ohmmeter (Millipore, Bedford, MA); wells registering a resistance of 200 ohms or greater, after correcting for the resistance obtained in control blank wells, were used in the transport experiments.
(§2) The LLC-PK1 and L-MDR1 cells were washed with warm Hank's balanced salt solution HBSS (pH 7.4) twice before transport experiment. HBSS containing verapamil (10 µM), SLE (2.0 and 10.0 µg/mL) or blank HBSS (control) was then loaded into both apical and basolateral chambers. After incubation at 37°C for 1.5 h, GE (100 µg/mL) was added to either the apical or basolateral side to evaluate the transport in absorptive and secretive directions, respectively. The cell monolayer was then incubated for another 2 h. Finally, the concentrations of ginsenosides were determined by LC/MS. All experiments were conducted in triplicate.
(§3) For the transport assay, the apparent permeability (P app, cm/s) in each direction (A→B and B→A) was calculated as follows, where A is the surface area of the membrane inserts (0.0804 cm^2), C 0 is the initial concentration of the compound applied in the donor compartment (2 µM), and △Q is the amount (micromoles) of compound transported over time △t (5 h = 18,000 s): [drawing 1]
(§4) The efflux ratio (ER) was a dimensionless number calculated as the ratio of the apparent permeability in the B→A direction divided by the apparent permeability in the A→B direction. [drawing 2]

[2] = tested on: LLC-PK1 cells (lacking P-gp); assay: Transport of digoxin and ginsenosides across LLC-PK1 cell monolayers; type: in vitro ADME; details: for Effect of verapamil on transport (efflux ratio): 10 µM verapamil; for Effect of SLE on transport (AP→BL, BL→AP): SLE 2.0 and 10.0 µg/mL
Protocol: as §1, §2, §3, §4

[3] = target: T1, human MDR1-encoded P-gp (L-MDR1 cells); assay: Uptake (intracellular concentration) of digoxin and ginsenosides in L-MDR1 cells; type: in vitro ADME
Protocol: as §1
(§5) LLC-PK1 and L-MDR1 cells were incubated with SLE (2.0 and 10.0 µg/mL) or verapamil (10 µM) for 1.0 h, and then were washed to discard SLE or verapamil before adding 100 µg/mL of GE. The accumulation of GE lasted for 2 h, and the intracellular concentrations of ginsenosides were measured by LC/MS. All experiments were conducted in triplicate.

[4] = tested on: LLC-PK1 cells (lacking P-gp); assay: Uptake (intracellular accumulation) of digoxin and ginsenosides in LLC-PK1 cells; type: in vitro ADME; details: for Effect of verapamil on intracellular accumulation: 10 µM verapamil; for Effect of SLE on intracellular accumulation: SLE 2.0 and 10.0 µg/mL
Protocol: as §1, §5

Caco-2 cell monolayer = assay: Transport of digoxin and ginsenosides across Caco-2 cell monolayer (efflux ratio); type: in vitro ADME, human
Protocol: (§6) Caco-2 cells were purchased from American Type Culture Collection (Manassas, VA), and were routinely cultured in Dulbecco's modified Eagle's medium supplemented with 10% fetal bovine serum, 1% nonessential amino acids, 1 mM sodium pyruvate, and 100 U/mL penicillin and streptomycin (Invitrogen, Carlsbad, CA). The cells were grown in an atmosphere of 5% CO2 at 37°C, and cell medium was changed every other day. Cells were seeded at a density of 4×10^4 cells per well in 24-well microporous polycarbonate insert filter plates (0.4-µm pore size) (Corning Costar plates; Corning Life Sciences, Lowell, MA) and grown for 15 days in Caco-2 growth medium. The medium was replaced every 3 to 4 days. Before running the assay, the culture medium was replaced by HBSS buffer supplemented with 10 mM Hepes and 20 mM glucose.
(§7) Caco-2 cells with a density of 1.2×10^5 cells/insert were seeded on a permeable polycarbonate insert (Millicell cell culture inserts, 0.4 µm pore size, 12 mm diameter; Millipore Corporation) in 24-well tissue culture plates and were used for the experiment 18 to 21 days after seeding. [^14C]Mannitol permeability and transepithelial electrical resistance measurements (Millicell-ERS epithelial volt-ohm meter; Millipore Corporation) were used to evaluate the integrity of Caco-2 cell monolayer. The monolayer used in transport studies had transepithelial electrical resistance values exceeding 600 Ω·cm^2, and the leakage of mannitol was less than 0.3% of the dose/h. Before transport initiation studies, the cell monolayer was first washed with warm HBSS (pH 7.4) twice. HBSS containing SLE (2.0 and 10.0 µg/mL) or 1% ethanol (control) was then loaded into both apical and basolateral chambers. After incubation at 37°C for 1.5 h, 100 µg/mL of GE was added to either the apical or basolateral side to evaluate the transport in absorptive and secretory directions, and the cell monolayer was incubated for another 2 h. 10 µM verapamil was used as a positive control inhibitor. At the designated time point, samples were taken from the receiving chamber for analysis. Ginsenosides were determined by LC-MS. All experiments were conducted in triplicate.
as §3, §4

Caco-2 cells = assay: Uptake of digoxin and ginsenosides in Caco-2 cells; type: in vitro ADME, human
Protocol: as §6
as §5, with “Caco-2” for “LLC-PK1 and L-MDR1”, “h. Then the cells” for “h, and then”, “washed with Hank's” for “washed”, “the addition” for “adding 100 µg/mL”, “GE (100 µg/mL).” for “GE.”, “ginsenosides” for “GE”

P-gp (MDR1) = P-gp (MDR1) (Homo sapiens, UniProt P08183); assay: Transport of digoxin and ginsenosides across L-MDR1 cell monolayers (efflux ratio); type: in vitro ADME; details: human, read-out: Efflux ratio (Papp BL-AP / Papp AP-BL)
Protocol: as §1, §2, §3, §4

[5] = Transport of digoxin and ginsenosides across Caco-2 cell monolayer (efflux ratio); type: in vitro ADME, human; details: human, Caco-2, pH 7.4
Protocol: as §6, §7, §3, §4

[6] = LLC-PK1, pH 7.4, L-MDR1 cells, control (absence of verapamil), GE 100 µg/mL, 2 h
[7] = LLC-PK1, pH 7.4, L-MDR1 cells, presence of 10 µM verapamil
[8] = LLC-PK1, pH 7.4, with verapamil 10 µM, L-MDR1 cells, presence of 10 µM verapamil

T1 sequence (P08183 whole entry): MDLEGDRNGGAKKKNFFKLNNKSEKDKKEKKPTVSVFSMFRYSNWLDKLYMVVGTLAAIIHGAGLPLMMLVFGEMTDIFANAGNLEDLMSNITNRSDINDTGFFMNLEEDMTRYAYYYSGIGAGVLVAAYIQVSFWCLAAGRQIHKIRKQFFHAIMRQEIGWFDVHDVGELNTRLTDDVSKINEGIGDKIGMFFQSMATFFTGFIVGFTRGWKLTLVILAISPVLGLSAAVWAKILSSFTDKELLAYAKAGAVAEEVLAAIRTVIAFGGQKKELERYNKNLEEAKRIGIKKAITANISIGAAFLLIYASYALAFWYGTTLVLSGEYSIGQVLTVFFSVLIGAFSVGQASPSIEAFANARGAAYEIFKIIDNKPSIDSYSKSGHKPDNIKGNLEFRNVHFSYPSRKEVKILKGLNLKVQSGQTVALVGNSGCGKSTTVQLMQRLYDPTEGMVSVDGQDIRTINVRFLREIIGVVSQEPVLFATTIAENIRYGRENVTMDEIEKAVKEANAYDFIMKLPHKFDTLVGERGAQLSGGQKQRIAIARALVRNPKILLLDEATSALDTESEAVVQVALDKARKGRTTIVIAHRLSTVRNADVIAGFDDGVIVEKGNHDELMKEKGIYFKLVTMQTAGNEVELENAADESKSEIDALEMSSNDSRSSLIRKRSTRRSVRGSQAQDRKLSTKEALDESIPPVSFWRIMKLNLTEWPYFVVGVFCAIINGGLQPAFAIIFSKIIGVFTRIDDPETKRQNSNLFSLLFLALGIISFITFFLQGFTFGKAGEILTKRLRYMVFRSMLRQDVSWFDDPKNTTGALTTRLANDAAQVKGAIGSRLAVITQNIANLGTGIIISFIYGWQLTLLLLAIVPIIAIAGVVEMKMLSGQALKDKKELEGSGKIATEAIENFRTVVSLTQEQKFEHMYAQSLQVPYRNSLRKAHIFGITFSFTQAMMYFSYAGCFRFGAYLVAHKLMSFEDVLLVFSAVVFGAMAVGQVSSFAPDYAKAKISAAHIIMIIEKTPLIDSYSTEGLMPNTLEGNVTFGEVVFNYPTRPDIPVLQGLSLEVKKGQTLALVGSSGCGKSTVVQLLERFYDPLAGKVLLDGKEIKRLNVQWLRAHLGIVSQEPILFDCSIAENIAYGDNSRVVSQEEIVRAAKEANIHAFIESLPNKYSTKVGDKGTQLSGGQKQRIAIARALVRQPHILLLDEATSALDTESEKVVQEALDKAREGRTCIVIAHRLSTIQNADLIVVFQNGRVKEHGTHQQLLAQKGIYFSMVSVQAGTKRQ
Sequence of P-gp (MDR1) (P08183 whole entry): as above

| efflux ratio at 2 h, 100 µg/mL (P-gp (MDR1); [8]) | Structure (SMILES) | Effect of verapamil on efflux ratio / Papp [1] | Effect of SLE on efflux ratio / transport [1] | P-gp substrate classification [1] | Effect of verapamil on transport (efflux ratio) [2] | Effect of SLE on transport (AP→BL, BL→AP) [2] | Increase of intracellular concentration by SLE ([3]; 2.0 µg/mL SLE) | Increase of intracellular concentration by SLE ([3]; 10.0 µg/mL SLE) | Effect of verapamil on intracellular accumulation [4] | Effect of SLE on intracellular accumulation [4] | Effect of verapamil on efflux ratio (Caco-2 cell monolayer; Caco-2 cells, 10 µM verapamil) | Effect of SLE on BL-AP transport / efflux ratio (Caco-2 cell monolayer; Caco-2 monolayer, SLE 2.0 and 10.0 µg/mL) | Effect of verapamil on uptake (Caco-2 cells; 10 µM verapamil) | Effect of SLE on intracellular concentration (Caco-2 cells; SLE 2.0 and 10.0 µg/mL, P<0.01) | efflux ratio at 2 h, 100 µg/mL (P-gp (MDR1); [6]) | efflux ratio at 2 h (P-gp (MDR1); [7]) | efflux ratio at 2 h, 100 µg/mL [5] |
| --- | --- | --- | --- | --- | --- | --- | --- | --- | --- | --- | --- | --- | --- | --- | --- | --- | --- |
| – | CC(C)=CCC[C@](C)(O)[C@H]1CC[C@]2(C)[C@@H]1[C@H](O)C[C@@H]1[C@@]3(C)CC[C@H](O[C@@H]4O[C@H](CO)[C@@H](O)[C@H](O)[C@H]4O[C@@H]4O[C@H](CO)[C@@H](O)[C@H](O)[C@H]4O)C(C)(C)[C@@H]3CC[C@]12C [Rg3, ginsenoside Rg3] | significantly decrease of ER | significantly decreased | moderate P-gp substrates | No transport difference | No transport difference | 2.5 fold | 2.9 fold | no significant difference | no significant difference | decreased significantly | concentration dependently decrease | significantly enhanced | concentration dependently increase | – | – | – |
| – | CC(C)=CCC[C@](C)(O)[C@H]1CC[C@]2(C)[C@@H]1[C@H](O)C[C@@H]1[C@@]3(C)CC[C@H](O)C(C)(C)[C@@H]3[C@@H](O[C@@H]3O[C@H](CO)[C@@H](O)[C@H](O)[C@H]3O[C@@H]3O[C@@H](C)[C@H](O)[C@@H](O)[C@H]3O)C[C@]12C [Rg2, ginsenoside Rg2] | significantly decrease of ER | significantly decreased | moderate P-gp substrates | No transport difference | No transport difference | 1.7 fold | 2.1 fold | no significant difference | no significant difference | – | – | – | – | > 3.5 | 1.52 | 4.26 |
| – | CC(C)=CCC[C@](C)(O)[C@H]1CC[C@]2(C)[C@@H]1[C@H](O)C[C@@H]1[C@@]3(C)CC[C@H](O)C(C)(C)[C@@H]3[C@@H](O[C@@H]3O[C@H](CO)[C@@H](O)[C@H](O)[C@H]3O)C[C@]12C [Rh1, ginsenoside Rh1] | almost not affected by verapamil | almost not be affected by SLE | almost could not be transported by P-gp | No transport difference | – | – | – | almost not affected by verapamil | – | – | – | – | – | < 2 | 1.6 | – |
| 1.16 | CC(C)=CCC[C@](C)(O[C@@H]1O[C@H](CO)[C@@H](O)[C@H](O)[C@H]1O)[C@H]1CC[C@]2(C)[C@@H]1[C@H](O)C[C@@H]1[C@@]3(C)CC[C@H](O)C(C)(C)[C@@H]3[C@@H](O[C@@H]3O[C@H](CO)[C@@H](O)[C@H](O)[C@H]3O)C[C@]12C [Rg1, ginsenoside Rg1] | almost not affected by verapamil | almost not be affected by SLE | almost could not be transported by P-gp | No transport difference | – | – | – | almost not affected by verapamil | – | – | – | – | – | < 2 | – | – |
| 2.36 | CC(C)=CCC[C@](C)(O[C@@H]1O[C@H](CO)[C@@H](O)[C@H](O)[C@H]1O)[C@H]1CC[C@]2(C)[C@@H]1[C@H](O)C[C@@H]1[C@@]3(C)CC[C@H](O)C(C)(C)[C@@H]3[C@@H](O[C@@H]3O[C@H](CO)[C@@H](O)[C@H](O)[C@H]3O[C@@H]3O[C@@H](C)[C@H](O)[C@@H](O)[C@H]3O)C[C@]12C [Re, ginsenoside Re] | almost not affected by verapamil | almost not be affected by SLE | almost could not be transported by P-gp | No transport difference | – | – | – | almost not affected by verapamil | – | – | – | – | – | < 2 | – | – |

| Structure (SMILES) | efflux ratio at 2 h, 100 µg/mL (P-gp (MDR1); [8]) | Effect of verapamil on efflux ratio / Papp [1] | Effect of SLE on efflux ratio / transport [1] | P-gp substrate classification [1] | Effect of verapamil on transport (efflux ratio) [2] | Effect of SLE on transport (AP→BL, BL→AP) [2] | Increase of intracellular concentration by SLE ([3]; 2.0 µg/mL SLE) | Increase of intracellular concentration by SLE ([3]; 10.0 µg/mL SLE) | Effect of verapamil on intracellular accumulation [4] | Effect of SLE on intracellular accumulation [4] | Effect of verapamil on efflux ratio (Caco-2 cell monolayer; Caco-2 cells, 10 µM verapamil) | Effect of SLE on BL-AP transport / efflux ratio (Caco-2 cell monolayer; Caco-2 monolayer, SLE 2.0 and 10.0 µg/mL) | Effect of verapamil on uptake (Caco-2 cells; 10 µM verapamil) | Effect of SLE on intracellular concentration (Caco-2 cells; SLE 2.0 and 10.0 µg/mL, P<0.01) | efflux ratio at 2 h, 100 µg/mL (P-gp (MDR1); [6]) | efflux ratio at 2 h (P-gp (MDR1); [7]) | efflux ratio at 2 h, 100 µg/mL [5] |
| --- | --- | --- | --- | --- | --- | --- | --- | --- | --- | --- | --- | --- | --- | --- | --- | --- | --- |
| CC(C)=CCC[C@](C)(O[C@@H]1O[C@H](CO)[C@@H](O)[C@H](O)[C@H]1O)[C@H]1CC[C@]2(C)[C@@H]1[C@H](O)C[C@@H]1[C@@]3(C)CC[C@H](O)C(C)(C)[C@@H]3[C@@H](O)C[C@]12C [F1, ginsenoside F1] | 1.99 | almost not affected by verapamil | almost not be affected by SLE | almost could not be transported by P-gp | No transport difference | – | – | – | almost not affected by verapamil | – | – | – | – | – | < 2 | – | – |
